Data taken from paper PMC8151276, “An Integrated Approach toward NanoBRET Tracers for Analysis of GPCR Ligand Engagement” (Molecules, 2021).
Each block holds one compound with its values, some of them ahead of it.

Assays:
Type in all cases: binding
AVPR1B = molecular target: T1, AVPR1B (Homo sapiens, UniProt P47901); assay: NanoBRET screen HiBiT-AVPR1B in HEK293
T1 construct: purchased Promega (in-house HiBiT-GPCR construct library, NanoBRET)
T1 sequence (P47901 1-424): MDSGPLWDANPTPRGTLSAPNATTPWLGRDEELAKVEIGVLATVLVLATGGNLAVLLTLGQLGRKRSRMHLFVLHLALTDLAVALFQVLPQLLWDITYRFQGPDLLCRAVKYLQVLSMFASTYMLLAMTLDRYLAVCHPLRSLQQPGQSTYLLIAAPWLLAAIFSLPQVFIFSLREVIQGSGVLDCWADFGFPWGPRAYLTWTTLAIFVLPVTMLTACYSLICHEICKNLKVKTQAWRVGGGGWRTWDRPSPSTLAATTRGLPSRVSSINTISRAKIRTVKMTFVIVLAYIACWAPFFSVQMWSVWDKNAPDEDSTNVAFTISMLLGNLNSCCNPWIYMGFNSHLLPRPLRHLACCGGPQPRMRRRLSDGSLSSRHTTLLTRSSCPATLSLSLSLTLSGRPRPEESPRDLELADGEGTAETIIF
Experimental: (§1) Each tracer candidate was screened across the entire library of HiBiT-GPCR constructs using NanoBRET as the detection modality. As depicted in Figure 4A, the specificity of interactions was evaluated through decrease in BRET due to competitive displacement of a bound tracer by excess parental compound. Each tracer was analyzed for binding to each HiBiT-GPCR fusion in the absence and in the presence of competing parental compound. Briefly, HEK293 cells were transfected with HiBiT-GPCR constructs diluted into promoterless DNA to reduce expression and maximize translocation to the cell surface. Each tracer candidate was then screened at concentrations of 1 μM and 0.1 μM across cells expressing these fusions. Cells were treated for 1.5 h with tracer either alone or in the presence of 20 μM competing parental compound (i.e., control). BRET was measured upon addition of purified LgBiT and subsequent complementation with HiBiT genetically fused to a GPCR. The specificity of interactions was assessed through a decrease in BRET signal due to competitive displacement of the bound tracer. To further gauge the robustness of these interactions, the fold response over the control (i.e., BRETtracer/BRETcontrol) was calculated. We chose a 1.5-fold response, which translates to ≥7-fold signal over noise as the minimal threshold required to score an interaction as positive. […]. Below we highlight the screening results obtained for our exemplary fluorescent tracers based on Clozapine, Amitriptyline and AZD1283.
(§2) HiBiT-GPCR DNA constructs were diluted in 10 mM Tris pH 8 to a final concentration of 0.01 μg/μL, arrayed in 96-well plates and stored at −20 °C. For transfection, HEK293 cells were suspended in Opti-MEM (without phenol red) supplemented with 2% fetal bovine serum (Seradigm) and 100 units/mL penicillin–streptomycin (Gibco) at a final concentration of 220,000 cells/mL and dispensed into white 96-well plates at 90 μL/well. Subsequent transfections and screens were carried using an Agilent Bravo Automated Liquid Handling Platform. First, the 96-well HiBiT DNA arrays were diluted 25-fold in Opti-MEM (without serum or phenol red) to a final concentration of 0.0004 μg/μL and 20 μL of the diluted DNAs were transferred into new 96-well plates. Next, promoterless carrier DNA (1 μg/μL) was diluted 25-fold (0.04 μg/μL) and then dispensed into the diluted arrays at 20 μL/well. Following brief mixing, Viafect transfection reagent (Promega) diluted 16-fold into Opti-MEM was dispensed into the plates at 40 μL/well. After mixing by pipetting, plates were incubated for 10 min on the pipetting station deck. The DNA-transfection reagent complexes were then added to plates containing cells. To facilitate the screen, 10 μL of DNA-transfection reagent complexes were added in duplicates to the top 4 and bottom 4 rows, resulting in two identical 48-well arrays per plate. Plates with transfected cells were incubated for 18–20 h at 37 °C/5% CO2. A screen of each tracer across the entire library using two different concentrations requires duplicate plates of transfected cells. Depending on the number of tracers being screened, transfections can be scaled up using the same ratios. The next day, for each tracer, four 20× screening solutions in tracer dilution buffer (Promega) were prepared: two duplicates at final concentration of 20 μM and two duplicates at a final concentration of 2 μM. A competing unmodified compound was added to one of each duplicate at a final concentration of 400 μM. The four resulting solutions were diluted 4-fold in Opti-MEM without serum or phenol red to generate 5× solutions (5 µM and 0.5 µM tracer +/− 100 μM competing compound). To screen the library, a BioTek MultiFlo FX liquid dispenser was used to dispense 22.5 µL of tracer solution to the top 4 rows and 22.5 µL tracer + competing compound solution to the 4 bottom rows. Plates were briefly mixed on an orbital shaker and incubated for 1.5 h at room temperature. […]

CCR3 = molecular target: T2, CCR3 (Homo sapiens, UniProt P51677); assay: NanoBRET screen HiBiT-CCR3 in HEK293
T2 construct: purchased Promega (in-house HiBiT-GPCR construct library, NanoBRET)
T2 sequence (P51677 1-355): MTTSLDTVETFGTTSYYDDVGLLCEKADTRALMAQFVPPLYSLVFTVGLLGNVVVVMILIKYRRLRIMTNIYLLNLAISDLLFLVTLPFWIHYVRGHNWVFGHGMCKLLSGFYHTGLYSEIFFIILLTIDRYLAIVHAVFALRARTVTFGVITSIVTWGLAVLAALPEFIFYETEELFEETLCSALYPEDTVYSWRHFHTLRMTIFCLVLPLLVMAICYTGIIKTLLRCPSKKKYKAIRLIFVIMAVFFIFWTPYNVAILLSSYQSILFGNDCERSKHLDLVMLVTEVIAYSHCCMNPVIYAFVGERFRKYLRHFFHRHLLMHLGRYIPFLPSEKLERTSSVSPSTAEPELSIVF
Experimental: as §1, §2

C3AR1 = molecular target: T3, C3AR1 (Homo sapiens, UniProt Q16581); assay: NanoBRET screen HiBiT-C3AR1 in HEK293
T3 construct: purchased Promega (in-house HiBiT-GPCR construct library, NanoBRET)
T3 sequence (Q16581 1-482): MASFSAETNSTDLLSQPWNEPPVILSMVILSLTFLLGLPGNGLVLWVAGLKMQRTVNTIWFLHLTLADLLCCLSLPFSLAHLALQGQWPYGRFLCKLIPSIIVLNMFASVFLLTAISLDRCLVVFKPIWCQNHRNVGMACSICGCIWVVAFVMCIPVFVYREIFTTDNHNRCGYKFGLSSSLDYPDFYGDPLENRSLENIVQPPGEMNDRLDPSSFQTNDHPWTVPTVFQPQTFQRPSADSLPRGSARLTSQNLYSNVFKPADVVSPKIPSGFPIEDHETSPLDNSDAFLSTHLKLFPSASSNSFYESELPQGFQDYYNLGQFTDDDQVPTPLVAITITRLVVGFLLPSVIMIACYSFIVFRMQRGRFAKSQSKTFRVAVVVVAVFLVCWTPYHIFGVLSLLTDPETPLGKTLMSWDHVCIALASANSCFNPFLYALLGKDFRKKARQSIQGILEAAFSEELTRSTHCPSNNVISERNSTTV
Experimental: as §1, §2

CXCR4 = molecular target: T4, CXCR4 (Homo sapiens, UniProt P61073); assay: NanoBRET screen HiBiT-CXCR4 in HEK293
T4 construct: purchased Promega (in-house HiBiT-GPCR construct library, NanoBRET)
Experimental: as §1, §2

[1] = tracer at 0.1μM, listed as amitriptyline-b-2-NB590
[2] = tracer at 1μM, listed as amitriptyline-b-2-NB590

T4 sequence (P61073 whole entry): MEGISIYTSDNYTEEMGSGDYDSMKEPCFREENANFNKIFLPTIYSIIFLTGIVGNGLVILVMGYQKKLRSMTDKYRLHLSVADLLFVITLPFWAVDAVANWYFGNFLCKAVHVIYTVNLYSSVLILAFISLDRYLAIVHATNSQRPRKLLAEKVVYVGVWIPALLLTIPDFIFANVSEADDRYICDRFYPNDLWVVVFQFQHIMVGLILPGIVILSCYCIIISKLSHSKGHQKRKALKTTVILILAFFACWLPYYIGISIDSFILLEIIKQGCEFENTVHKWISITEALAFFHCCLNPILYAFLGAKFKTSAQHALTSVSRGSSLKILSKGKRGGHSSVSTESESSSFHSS

NanoBRET Fold Response (AVPR1B; AVPR1B, 0.1μM): 0.97
NanoBRET Fold Response (AVPR1B; AVPR1B, 1μM): 1.05
NanoBRET Fold Response (CCR3; CCR3, 0.1μM): 0.96
NanoBRET Fold Response (CCR3; CCR3, 1μM): 1.02
NanoBRET Fold Response (C3AR1; C3AR1, 0.1μM): 1.10
NanoBRET Fold Response (C3AR1; C3AR1, 1μM): 1.09
NanoBRET Fold Response (CXCR4; CXCR4, 0.1μM): 0.86
NanoBRET Fold Response (CXCR4; CXCR4, 1μM): 1.17
SMILES: CCOC(=O)c1cc(C#N)c(N2CCC(C(=O)NS(=O)(=O)Cc3ccccc3/C=C/C(=O)NCCNC(=O)CCc3ccc4n3[B-](F)(F)[N+]3=C(c5ccc[nH]5)C=CC3=C4)CC2)nc1C [AZD1283-1-NB590]

NanoBRET Fold Response (AVPR1B; AVPR1B, tracer 0.1μM): 1.09
NanoBRET Fold Response (AVPR1B; AVPR1B, tracer 1μM): 1.04
NanoBRET Fold Response (CCR3; CCR3, tracer 0.1μM): 0.95
NanoBRET Fold Response (CCR3; CCR3, tracer 1μM): 0.89
NanoBRET Fold Response (C3AR1; C3AR1, tracer 0.1μM): 0.99
NanoBRET Fold Response (C3AR1; C3AR1, tracer 1μM): 1.04
NanoBRET Fold Response (CXCR4; CXCR4, tracer 0.1μM): 1.08
NanoBRET Fold Response (CXCR4; CXCR4, tracer 1μM): 0.99
SMILES: N#CN=C(NCCCOc1cccc(CN2CCCCC2)c1)NCCNC(=O)CCOCCOCCOCCOCCNC(=O)CCc1ccc2n1[B-](F)(F)[N+]1=C(c3ccc[nH]3)C=CC1=C2 [Aminopotentidine-2-NB590]

SMILES: CN(C)CCC=C1c2ccccc2CCc2ccc(C(=O)NCCNC(=O)CCOCCOCCOCCOCCNC(=O)CCc3ccc4n3[B-](F)(F)[N+]3=C(c5ccc[nH]5)C=CC3=C4)cc21 [Amitriptyline-a-2-NB590]
NanoBRET Fold Response (AVPR1B; tracer at 0.1μM): 0.94
NanoBRET Fold Response (AVPR1B; tracer at 1μM): 1.03
NanoBRET Fold Response (CCR3; tracer at 0.1μM): 1.02
NanoBRET Fold Response (CCR3; tracer at 1μM): 0.95
NanoBRET Fold Response (C3AR1; tracer at 0.1μM): 0.99
NanoBRET Fold Response (C3AR1; tracer at 1μM): 1.01
NanoBRET Fold Response (CXCR4; tracer at 0.1μM): 0.89
NanoBRET Fold Response (CXCR4; tracer at 1μM): 1.04

SMILES: CN(C)CCC=C1c2ccccc2CCc2ccc(C(=O)NCCNC(=O)CCOCCOCCOCCOCCNC(=O)CCc3ccc4n3[B-](F)(F)[N+]3=C(c5ccc[nH]5)C=CC3=C4)cc21 [Amitriptyline-b-2-NB590]
NanoBRET Fold Response (AVPR1B; [1]): 0.84
NanoBRET Fold Response (AVPR1B; [2]): 1.18
NanoBRET Fold Response (CCR3; tracer at 0.1μM): 0.90
NanoBRET Fold Response (CCR3; [2]): 1.27
NanoBRET Fold Response (C3AR1; [1]): 1.19
NanoBRET Fold Response (C3AR1; tracer at 1μM): 1.00
NanoBRET Fold Response (CXCR4; [1]): 1.12
NanoBRET Fold Response (CXCR4; tracer at 1μM): 0.70

SMILES: CN(CCC=C1c2ccccc2CCc2ccccc21)C(=O)CCOCCOCCOCCOCCNC(=O)CCc1ccc2n1[B-](F)(F)[N+]1=C(c3ccc[nH]3)C=CC1=C2 [Amitriptyline-e-2-NB590]
NanoBRET Fold Response (AVPR1B; tracer at 1μM): 1.01
NanoBRET Fold Response (CCR3; tracer at 1μM): 0.86
NanoBRET Fold Response (C3AR1; tracer at 1μM): 1.02
NanoBRET Fold Response (CXCR4; tracer at 1μM): 1.15
